According to patent US20180118588A1, “CONTROL OF BACTERIAL ACTIVITY, SUCH AS IN SEWERS AND WASTEWATER TREATMENT SYSTEMS” (THE UNIVERSITY OF QUEENSLAND, priority 2010, published 2018):
Read-outs that look alike come from different tables or passages of the source.

Key:
[1] = tested on: sulfate reducing bacteria (SRB) in sewer biofilm; conditions: Exp. I
[2] = tested on: methanogenic archaea (MA) in sewer biofilm; conditions: Exp. I
[3] = tested on: methanogenic archaea (MA) in sewer biofilm; conditions: Exp. III
Source text: (§1) Experiment III aimed to achieve complete inhibition on both sulfide and methane production.

[4] = tested on: sewer biofilm cells; conditions: Exp. III; FNA dosed in the reactors
Source text: as §1

[5] = tested on: sulfate reducing bacteria (SRB) in sewer biofilm; conditions: Exp. III
Source text: as §1

[6] = tested on: anaerobic sewer biofilms; test: Viability tests with biofilms on carriers from rising main sewer reactors (cell killing capacity, Table 2, FIG. 7-9); assay type: cell-based; conditions: for Inactivation of biofilm cells: agent by itself
Experimental: In these experiments, viability tests were carried out with biofilms on carriers from rising main sewer reactors. […]

[7] = tested on: sulfate reducing bacteria (SRB) in sewer biofilm; conditions: Exp. II
[8] = tested on: methanogenic archaea (MA) in sewer biofilm; conditions: Exp. II
[9] = tested on: sulfate reducing bacteria (SRB) in sewer biofilm; conditions: Exp. IV
[10] = tested on: methanogenic archaea (MA) in sewer biofilm; conditions: Exp. IV
[11] = in the presence of nitrite, continuous dosing 24 days
[12] = nitrite 20 mg-N/L every 30 minutes for 24 days, pH 8.6~9.2 after dosing
[13] = FNA 0.18 and 0.36 mg-N/L, 24 hours, 4 dosages
[14] = one month after stopping FNA dosage
[15] = FNA 0.05, 0.08, 0.17 mg-N/L, single dose, 6 hour, pH 6.2

O=NO [nitrite]
Sulfide accumulation in the reactor [1, 11]: No sulfide and methane accumulation | Residual activity after treatment: SRB [1, 12]: SRB: 1 mg-S/L- mg-S/L-hr | Methane accumulation in the reactor [2, 11]: No sulfide and methane accumulation | Residual activity after treatment: MA [2, 12]: MA: 0.1 mg- mg-COD/L-hr

O=NO [FNA, free nitrous acid]
Inhibition: methane production [3, 13]: Negligible sulfide | Recovery MA ([3]; in two months): MA: 40~60% | Methanogens activity recovery [3, 14]: 20% | Cells in the biofilm killed (FIG. 4B) [4]: over 90% | Inhibition: sulfide production [5, 13]: Negligible sulfide | Recovery SRB ([5]; in two months): SRB: 70-80% in | SRB recovery [5, 14]: about 70% | Inactivation of biofilm cells [6]: significantly inactivating biofilm cells | Microbial killing, ranking (FIG. 7) ([6]; nitrite 100 mgN/L, pH 6, FNA 0.26 mgN/L, 6 hr, H2O2 30 mg/L, O2 6 mg/L, caustic pH 10.5 for 2 hr after FNA): followed by FNA→Caustic, FNA+O2, and FNA | Inhibition: sulfide production [7, 15]: Negligible sulfide | Time to recover to 50% (SRB) ([7]; R4, highest FNA (0.17 mg-N/L), 6 hour contact): 16 days | Recovery SRB ([7]; after 1 month): SRB: 90%; | Inhibition: methane production [8, 15]: Negligible sulfide | Recovery MA ([8]; after 1 month): MA: 30~50%. | Methane after the FNA dosing ([8]; all FNA concentrations, 6 hour contact): below 20% | Sulfide production ([9]; Day 14): zero production | Sulfide production, of the initial level ([9]; after 7 days): 50% | Recovery SRB ([9]; in three weeks): SRB: 100% in | Methane production by sewer biofilm ([10]; one month after terminating dosage, 828 m downstream vs wet well): ceased to produce methane | Inhibition: methane production ([10]; real sewer, nitrite 100 mgN/L, pH 6.0, FNA 0.24 mgN/L, 33 hours over three days): Negligible sulfide

[Na+].[OH-] [caustic shock, caustic soda, reference compound]
Inactivation of biofilm cells [6]: significantly inactivating biofilm cells

OO [H2O2, hydrogen peroxide, reference compound]
Effect on biocidal effect of acidified nitrite ([6]; H2O2 30 mg/L with nitrite 100 mgN/L at pH 6, 6 hr): enhanced the biocidal effect of acidified nitrite
